System: brain, spinal cord, and DRG of the NHPs
Test: NGS fold enrichment of synthetic library (passage 3) in NHPs, first cross-species screen
Assay type: in vivo, cynomolgus macaques (Macaca fascicularis)
Conditions: synthetic library passage 3, intravenous, RNA NGS, brain of NHPs, relative to wild-type AAV9
Method in brief: (§1)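 Synthetic capsid library (passage 3) was given intravenously […] to NHPs aged 2-4 years and to BALB/c and C57Bl/6 mice (n=3 each, 6-8 weeks). After about 28 days in vivo, tissue RNA was RT-PCR amplified and NGS-sequenced; values are fold enrichment per variant relative to wild-type AAV9.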

Sequence | Fold enrichment over AAV9 in the brain of NHPs [fold]
GSGQNQQTLYSSNT | 1.642
GSGQLRSLSTNQQT | 1.622
GSLLQAHSGQNQQT | 2.182
GSGLSVHLAQNQQT | 2.657
GGRNGHTVGQNQQT | 2.965
GVAGSLVSGQNQQT | 2.358
GSGQNQQYAGKILT | 1.112
GSVTHGISGQNQQT | 2.105
GSGVSTYNIQNQQT | 3.609
GSGQNQQVGGKTVT | 1.032
GSGTHYDNRQNQQT | 1.054
GSGQNQQTSVYMNT | 1.498
GVIVLHGSGQNQQT | 1.682
GSGQIRQLVDNQQT | 1.657
GSGSHHASRQNQQT | 1.712
GSGQNRKPASFAQT | 3.204
GSRSTGPSGQNQQT | 1.819
GSSTTIVSGQNHQT | 1.411

Same assay, conditions: synthetic library passage 3, intravenous, RNA NGS, spinal cord of NHPs, relative to wild-type AAV9

Sequence | Fold enrichment over AAV9 in the spinal cord of NHPs [fold]
GSGQNQQTLYSSNT | 1.044
GSGQLRSLSTNQQT | 6.855
GSLLQAHSGQNQQT | 1.008
GSGLSVHLAQNQQT | 1.234
GGRNGHTVGQNQQT | 3.732
GVAGSLVSGQNQQT | 7.670
GSGQNQQYAGKILT | 0.300
GSVTHGISGQNQQT | 4.542
GSGVSTYNIQNQQT | 2.912
GSGQNQQVGGKTVT | 6.195
GSGTHYDNRQNQQT | 0.072
GSGQNQQTSVYMNT | 0.613
GVIVLHGSGQNQQT | 14.166
GSGQIRQLVDNQQT | 5.529
GSGSHHASRQNQQT | 0.451
GSGQNRKPASFAQT | 0.000
GSRSTGPSGQNQQT | 2.479
GSSTTIVSGQNHQT | 0.000

Same assay, conditions: synthetic library passage 3, intravenous, RNA from brain of NHPs, NGS, relative to wild-type AAV9

Sequence | Fold enrichment over AAV9 in the brain of NHPs [fold]
GSGQLVSGLYNQQT | 1.325
GSGQIRESMGNQQT | 1.270
GSGIPSVKFQNQQT | 1.281
GSGQNSGVHFNQQT | 1.268
GSGQNQAMTHGDQT | 1.257
GSGQSHSLETNQQT | 1.188
GSGQRRELSQNQQT | 1.215
GGSHTYGGGQNQQT | 1.241

Same assay, conditions: synthetic library passage 3, intravenous, RNA from spinal cord of NHPs, NGS, relative to wild-type AAV9

Sequence | Fold enrichment over AAV9 in the spinal cord of NHPs [fold]
GSGQLVSGLYNQQT | 0.000
GSGQIRESMGNQQT | 1.676
GSGIPSVKFQNQQT | 0.061
GSGQNSGVHFNQQT | 0.587
GSGQNQAMTHGDQT | 1.878
GSGQSHSLETNQQT | 1.319
GSGQRRELSQNQQT | 1.791
GGSHTYGGGQNQQT | 13.065

System: brain
Test: NGS fold enrichment of synthetic library (passage 3) in C57Bl/6 mice, first cross-species screen
Assay type: in vivo
Conditions: synthetic library passage 3, intravenous, RNA NGS, brain of C57Bl/6 mice, relative to wild-type AAV9
Method in brief: as §1

Sequence | Fold enrichment over AAV9 in the brain of Mice (C57Bl/6) [fold]
GSGQNQQTLYSSNT | 0.664
GSGQLRSLSTNQQT | 1.310
GSLLQAHSGQNQQT | 0.575
GSGLSVHLAQNQQT | 0.806
GGRNGHTVGQNQQT | 1.105
GVAGSLVSGQNQQT | 1.321
GSGQNQQYAGKILT | 1.078
GSVTHGISGQNQQT | 1.135
GSGVSTYNIQNQQT | 0.769
GSGQNQQVGGKTVT | 1.094
GSGTHYDNRQNQQT | 0.612
GSGQNQQTSVYMNT | 0.640
GVIVLHGSGQNQQT | 1.074
GSGQIRQLVDNQQT | 0.314
GSGSHHASRQNQQT | 3.073
GSGQNRKPASFAQT | 0.892
GSRSTGPSGQNQQT | 0.440
GSSTTIVSGQNHQT | 0.993

Same assay, conditions: synthetic library passage 3, intravenous, RNA from brain of C57Bl/6 mice, NGS, relative to wild-type AAV9

Sequence | Fold enrichment over AAV9 in the brain of Mice (C57Bl/6) [fold]
GSGQLVSGLYNQQT | 0.842
GSGQIRESMGNQQT | 0.833
GSGIPSVKFQNQQT | 0.364
GSGQNSGVHFNQQT | 0.871
GSGQNQAMTHGDQT | 0.357
GSGQSHSLETNQQT | 0.520
GSGQRRELSQNQQT | 0.622
GGSHTYGGGQNQQT | 0.982

System: brain
Test: NGS fold enrichment of synthetic library (passage 3) in BALB/c mice, first cross-species screen
Assay type: in vivo
Conditions: synthetic library passage 3, intravenous, RNA NGS, brain of BALB/c mice, relative to wild-type AAV9
Method in brief: as §1

Sequence | Fold enrichment over AAV9 in the brain of Mice (BALB/c) [fold]
GSGQNQQTLYSSNT | 0.368
GSGQLRSLSTNQQT | 0.382
GSLLQAHSGQNQQT | 0.748
GSGLSVHLAQNQQT | 0.508
GGRNGHTVGQNQQT | 1.003
GVAGSLVSGQNQQT | 1.160
GSGQNQQYAGKILT | 0.431
GSVTHGISGQNQQT | 0.789
GSGVSTYNIQNQQT | 0.520
GSGQNQQVGGKTVT | 0.821
GSGTHYDNRQNQQT | 0.486
GSGQNQQTSVYMNT | 0.983
GVIVLHGSGQNQQT | 1.098
GSGQIRQLVDNQQT | 0.272
GSGSHHASRQNQQT | 0.584
GSGQNRKPASFAQT | 1.061
GSRSTGPSGQNQQT | 0.466
GSSTTIVSGQNHQT | 0.672

Same assay, conditions: synthetic library passage 3, intravenous, RNA from brain of BALB/c mice, NGS, relative to wild-type AAV9

Sequence | Fold enrichment over AAV9 in the brain of Mice (BALB/c) [fold]
GSGQLVSGLYNQQT | 0.733
GSGQIRESMGNQQT | 0.523
GSGIPSVKFQNQQT | 0.561
GSGQNSGVHFNQQT | 0.377
GSGQNQAMTHGDQT | 0.259
GSGQSHSLETNQQT | 0.363
GSGQRRELSQNQQT | 0.396
GGSHTYGGGQNQQT | 0.730

Source: patent US20260250318A1, “COMPOSITIONS AND METHODS FOR CROSSING THE BLOOD BRAIN BARRIER” (VOYAGER THERAPEUTICS, INC., priority 2022, published 2026)
